# From patent US6812258B2, “Cancer treatment composition and method using natural plant essential oils” (Ecosmart Technologies, Inc., priority 1998, dated 2004)
# Where two headings read alike, the source gives them in different places.
# How the values were obtained:
# [1] = tested on: Human Epithelial Breast Cancer Cells (MCF-7); test: Antiproliferative effect, 3H-thymidine incorporation in MCF-7 cells with and without estrogen; type: cell-based; settings: for activity at 50 µg/mL: Homo sapiens, MCF7, 24 h
# Method: (§1) MCF-7 cells were cultured in growth medium supplemented with 10% fetal bovine serum (FBS). At 85% confluence, cells were sub-cultured in 5% FBS serum stripped medium, phenol red free for 24 hours prior to the treatment of the test chemical. After 24 hours of treatment cell proliferation was measured using ^3H-thymidine incorporation. These test chemicals were tested in the presence and absence of estrogen to address if they have anti-estrogenic activity in addition to their antiproliferative effect. The study was done in triplicate and a control was used with solvent only. Control received solvent only at <0.1% ethanol. Estrogen was tested at 1 nM (=0.27 ng E2/ml). Exemplary plant essential oil compounds were tested at 50 ug/ml.
# as §1, with “(0.27” for “(=0.27”, “Plant” for “Exemplary plant”
# MCF-7 cells = test: Dose-response effect on E2-induced cell growth, viable cell count (trypan blue, haemocytometer); type: cell-based, human
# Method: MCF-7 cells were cultured in growth medium supplemented with 10% fetal bovine serum (FBS). At 85% confluence, cells were sub-cultured in 6 well petri-dishes and supplemented with 5% FBS serum stripped medium, phenol red free for 24 hours prior to the treatment of different concentrations of the test chemicals. After 5 days of treatment cells were trypsinized, collected using Eppendorf microcentrifuge. The cell pellets were resuspended in 1% trypan blue and three aliquots (10 ul each) of the viable cell suspension were counted using a haemocytometer assay. Each sample was then counted three times and the data shown is the average of three counts. These test chemicals were tested in the presence of 10 nM estrogen (=2.7 ng estrogen/ml). Two wells per test concentration were used. This experiment was repeated two times. Control received solvent only at <0.1% ethanol.
# [2] = read-out: 3H-thymidine incorporation % of control value, Table 1, test chemical 50 ug/ml + estrogen 1 nM, 24 hours treatment
# [3] = read-out: 3H-thymidine incorporation % of control value, Table 1, test chemical 50 ug/ml alone, 24 hours treatment
# [4] = Table 1, test chemical 50 ug/ml + estrogen 1 nM, 24 hours treatment
# [5] = Table 1, test chemical 50 ug/ml alone, 24 hours treatment
# [6] = Table 1, test chemical 50 ug/ml + estrogen 1 nM, 24 hours treatment, read-out: 3H-thymidine incorporation % of control value
# [7] = Table 1, test chemical 50 ug/ml alone, 24 hours treatment, read-out: 3H-thymidine incorporation % of control value
# [8] = test chemical 1 μg/ml + E2 10 nM, Day 5
# [9] = test chemical 5 μg/ml + E2 10 nM, Day 5
# [10] = test chemical 10 μg/ml + E2 10 nM, Day 5
# [11] = test chemical 20 μg/ml + E2 10 nM, Day 5
# [12] = Table 2, test chemical 50 ug/ml + estrogen 1 nM, 24 hours treatment, read-out: 3H-thymidine incorporation % of control value
# [13] = Table 2, test chemical 50 ug/ml alone, 24 hours treatment, read-out: 3H-thymidine incorporation % of control value
# [14] = Table 2, test chemical 50 ug/ml + estrogen 1 nM, 24 hours treatment
# [15] = Table 2, test chemical 50 ug/ml alone, 24 hours treatment
# [16] = test chemical 50 μg/ml + E2 10 nM, Day 5
# [17] = Table 1, estrogen alone 1 nM, 24 hours treatment
# [18] = Table 2, estrogen alone 1 nM, 24 hours treatment
molecule,measurement,setting,value
Cc1ccc(C(C)C)cc1O [Carvacrol],activity at 50 µg/mL,[1]; [2],43%
same,activity at 50 µg/mL,[1]; [3],50%
same,3H-thymidine incorporation % of estrogen value,[1]; [4],28%
same,3H-thymidine incorporation dpm/ug protein,[1]; [4],181.7 dpm/ug protein
same,3H-thymidine incorporation dpm/ug protein,[1]; [5],207.2 dpm/ug protein
OC/C=C/c1ccccc1 [Cinnamic alcohol],activity at 50 µg/mL,[1]; [6],53%
same,activity at 50 µg/mL,[1]; [7],4%
same,3H-thymidine incorporation % of estrogen value,[1]; [4],34%
same,3H-thymidine incorporation dpm/ug protein,[1]; [4],220.8 dpm/ug protein
same,3H-thymidine incorporation dpm/ug protein,[1]; [5],18.5 dpm/ug protein
CC(C)=CCCC(C)CC=O (stereo not drawn) [Citronellal],activity at 50 µg/mL,[1]; [6],69%
same,activity at 50 µg/mL,[1]; [7],20%
same,3H-thymidine incorporation % of estrogen value,[1]; [4],43%
same,3H-thymidine incorporation dpm/ug protein,[1]; [4],284.0 dpm/ug protein
same,3H-thymidine incorporation dpm/ug protein,[1]; [5],85.2 dpm/ug protein
CC12CCC(CC1)C(C)(C)O2 [Eucalyptol],activity at 50 µg/mL,[1]; [6],137%
same,activity at 50 µg/mL,[1]; [7],96%
same,3H-thymidine incorporation % of estrogen value,[1]; [4],86%
same,3H-thymidine incorporation dpm/ug protein,[1]; [4],568.0 dpm/ug protein
same,3H-thymidine incorporation dpm/ug protein,[1]; [5],398.0 dpm/ug protein
C=CCc1ccc(O)c(OC)c1 [Eugenol],activity at 50 µg/mL,[1]; [2],70%
same,activity at 50 µg/mL,[1]; [3],52%
same,3H-thymidine incorporation % of estrogen value,[1]; [4],44%
same,3H-thymidine incorporation dpm/ug protein,[1]; [4],289.1 dpm/ug protein
same,3H-thymidine incorporation dpm/ug protein,[1]; [5],215.6 dpm/ug protein
same,protection against the E2-induced abnormal growth in cancer breast cells,"MCF-7 cells; 1 ug/ml, summary of Table 3",35%
same,% anti-E2,MCF-7 cells; [8],25.00%
same,Cell count average,MCF-7 cells; [8],24.0 × (10^4)/ml
same,Cell count well #1,MCF-7 cells; [8],19 × (10^4)/ml
same,Cell count well #2,MCF-7 cells; [8],29 × (10^4)/ml
same,% anti-E2,MCF-7 cells; [9],41.70%
same,Cell count average,MCF-7 cells; [9],19.0 × (10^4)/ml
same,Cell count well #1,MCF-7 cells; [9],19 × (10^4)/ml
same,Cell count well #2,MCF-7 cells; [9],19 × (10^4)/ml
same,% anti-E2,MCF-7 cells; [10],50.00%
same,Cell count average,MCF-7 cells; [10],16.0 × (10^4)/ml
same,Cell count well #1,MCF-7 cells; [10],18 × (10^4)/ml
same,Cell count well #2,MCF-7 cells; [10],14 × (10^4)/ml
same,% anti-E2,MCF-7 cells; [11],60.40%
same,Cell count average,MCF-7 cells; [11],13.0 × (10^4)/ml
same,Cell count well #1,MCF-7 cells; [11],10 × (10^4)/ml
same,Cell count well #2,MCF-7 cells; [11],16 × (10^4)/ml
COc1ccccc1O [Guaiacol],activity at 50 µg/mL,[1]; [12],180%
same,activity at 50 µg/mL,[1]; [13],163%
same,3H-thymidine incorporation % of estrogen value,[1]; [14],119%
same,3H-thymidine incorporation dpm/μg protein,[1]; [14],788.8 dpm/μg protein
same,3H-thymidine incorporation dpm/μg protein,[1]; [15],712.3 dpm/μg protein
COC(=O)c1ccccc1O [Methyl salicylate],activity at 50 µg/mL,[1]; [6],168%
same,activity at 50 µg/mL,[1]; [7],107%
same,3H-thymidine incorporation % of estrogen value,[1]; [4],106%
same,3H-thymidine incorporation dpm/ug protein,[1]; [4],693.9 dpm/ug protein
same,3H-thymidine incorporation dpm/ug protein,[1]; [5],444.0 dpm/ug protein
C=C(C)[C@H]1CC=C(C)CC1 [R-(+)-Limonene],3H-thymidine incorporation % of control value,[1]; [14],119.3%
same,3H-thymidine incorporation % of estrogen value,[1]; [14],79%
same,3H-thymidine incorporation dpm/μg protein,[1]; [14],522.6 dpm/μg protein
same,3H-thymidine incorporation % of control value,[1]; [15],89.7%
same,3H-thymidine incorporation dpm/μg protein,[1]; [15],393.1 dpm/μg protein
Cc1ccc(C(C)C)c(O)c1 [Thymol],activity at 50 µg/mL,[1]; [6],26%
same,activity at 50 µg/mL,[1]; [7],23%
same,3H-thymidine incorporation % of estrogen value,[1]; [4],16%
same,3H-thymidine incorporation dpm/ug protein,[1]; [4],108.2 dpm/ug protein
same,3H-thymidine incorporation dpm/ug protein,[1]; [5],97.3 dpm/ug protein
same,protection against the E2-induced abnormal growth in cancer breast cells,"MCF-7 cells; 5 ug/ml, summary of Table 3",40%
same,% anti-E2,MCF-7 cells; [8],00.00%
same,Cell count average,MCF-7 cells; [8],32.0 × (10^4)/ml
same,Cell count well #1,MCF-7 cells; [8],32 × (10^4)/ml
same,Cell count well #2,MCF-7 cells; [8],32 × (10^4)/ml
same,% anti-E2,MCF-7 cells; [9],40.60%
same,Cell count average,MCF-7 cells; [9],19.0 × (10^4)/ml
same,Cell count well #1,MCF-7 cells; [9],20 × (10^4)/ml
same,Cell count well #2,MCF-7 cells; [9],18 × (10^4)/ml
same,% anti-E2,MCF-7 cells; [10],62.50%
same,Cell count average,MCF-7 cells; [10],12.0 × (10^4)/ml
same,Cell count well #1,MCF-7 cells; [10],12 × (10^4)/ml
same,Cell count well #2,MCF-7 cells; [10],12 × (10^4)/ml
same,% anti-E2,MCF-7 cells; [11],62.50%
same,Cell count average,MCF-7 cells; [11],12.0 × (10^4)/ml
same,Cell count well #1,MCF-7 cells; [11],10 × (10^4)/ml
same,Cell count well #2,MCF-7 cells; [11],14 × (10^4)/ml
C/C=C/c1ccc(OC)cc1 [Trans-anethole],activity at 50 µg/mL,[1]; [6],142%
same,activity at 50 µg/mL,[1]; [7],105%
same,3H-thymidine incorporation % of estrogen value,[1]; [4],89%
same,3H-thymidine incorporation dpm/ug protein,[1]; [4],589.8 dpm/ug protein
same,3H-thymidine incorporation dpm/ug protein,[1]; [5],434.9 dpm/ug protein
OCc1ccccc1 [benzyl alcohol],% anti-E2,MCF-7 cells; [16],35.40%
same,Cell count average,MCF-7 cells; [16],21.0 × (10^4)/ml
same,Cell count well #1,MCF-7 cells; [16],24 × (10^4)/ml
same,Cell count well #2,MCF-7 cells; [16],18 × (10^4)/ml
O=C/C=C\c1ccccc1 [cinnamic aldehyde],control against the E2-induced abnormal growth in cancer breast cells,"MCF-7 cells; 50 ug/ml, summary of Table 3",approximately 96%
same,% anti-E2,MCF-7 cells; [16],96.90%
same,Cell count average,MCF-7 cells; [16],01.0 × (10^4)/ml
same,Cell count well #1,MCF-7 cells; [16],00 × (10^4)/ml
same,Cell count well #2,MCF-7 cells; [16],02 × (10^4)/ml
Cc1ccc(C(C)C)cc1 [p-cymene],activity at 50 µg/mL,[1]; [6],152%
same,activity at 50 µg/mL,[1]; [7],101%
same,3H-thymidine incorporation % of estrogen value,[1]; [4],96%
same,3H-thymidine incorporation dpm/ug protein,[1]; [4],632.0 dpm/ug protein
same,3H-thymidine incorporation dpm/ug protein,[1]; [5],419.0 dpm/ug protein
CC1=CC[C@H](C(C)C)C=C1 [α-phellandrene],3H-thymidine incorporation % of control value,[1]; [14],145.0%
same,3H-thymidine incorporation % of estrogen value,[1]; [14],96%
same,3H-thymidine incorporation dpm/μg protein,[1]; [14],635.3 dpm/μg protein
same,3H-thymidine incorporation % of control value,[1]; [15],79.5%
same,3H-thymidine incorporation dpm/μg protein,[1]; [15],348.4 dpm/μg protein
CC1=CCC(C(C)(C)O)CC1 (stereo not drawn) [α-terpineol],activity at 50 µg/mL,[1]; [6],164%
same,activity at 50 µg/mL,[1]; [7],116%
same,activity at 50 µg/mL,[1]; [12],145%
same,activity at 50 µg/mL,[1]; [13],112%
same,3H-thymidine incorporation % of estrogen value,[1]; [4],103%
same,3H-thymidine incorporation dpm/ug protein,[1]; [4],679.1 dpm/ug protein
same,3H-thymidine incorporation dpm/ug protein,[1]; [5],480.5 dpm/ug protein
same,3H-thymidine incorporation % of estrogen value,[1]; [14],96%
same,3H-thymidine incorporation dpm/μg protein,[1]; [14],636.7 dpm/μg protein
same,3H-thymidine incorporation dpm/μg protein,[1]; [15],490.7 dpm/μg protein
Estrogen [reference compound],3H-thymidine incorporation % of estrogen value,"[1]; Table 1, estrogen alone 1 nM (reference)",100%
same,3H-thymidine incorporation % of control value,[1]; [17],158%
same,3H-thymidine incorporation dpm/ug protein,[1]; [17],658.6 dpm/ug protein
same,3H-thymidine incorporation % of estrogen value,"[1]; Table 2, estrogen alone 1 nM (reference)",100%
same,3H-thymidine incorporation % of control value,[1]; [18],151.6%
same,3H-thymidine incorporation dpm/μg protein,[1]; [18],664.2 dpm/μg protein
same,Cell count % of control,"MCF-7 cells; E2 10 nM alone, Day 5",145%
same,Cell count average,"MCF-7 cells; E2 10 nM alone, Day 5",32.0 × (10^4)/ml
same,Cell count well #1,"MCF-7 cells; E2 10 nM alone, Day 5",36 × (10^4)/ml
same,Cell count well #2,"MCF-7 cells; E2 10 nM alone, Day 5",28 × (10^4)/ml
